Source: ChEMBL document CHEMBL1212909, “Lactones and quinones from the tubers of Sinningia aggregata” (2010)

Experiments:
[1] = system: Candida dubliniensis; assay: Antifungal activity against Candida dubliniensis ATCC 778157 by broth microdilution method
[2] = system: Candida dubliniensis; assay: Antifungal activity against Candida dubliniensis ATCC 777 by broth microdilution method

MIC [1]	MIC [2]	SMILES
> 100 µg/mL	> 100 µg/mL	COc1ccc2c(c1)C(=O)c1cc(C)ccc1C2=O
> 100 µg/mL	> 100 µg/mL	Cc1ccc2c(c1)C(=O)c1cc(O)ccc1C2=O
> 100 µg/mL	> 100 µg/mL	Cc1ccc2c(c1)C(=O)c1ccccc1C2=O [TECTOQUINONE]
